Source: the supplement of paper PMC10307832

Assays:
Experiment in all cases: relative viability (nuclei count vs DMSO), 5 days (fraction); higher = more cells survive
Lestaurtinib + Alpelisib = compound: C[C@]12O[C@H](C[C@]1(O)CO)n1c3ccccc3c3c4c(c5c6ccccc6n2c5c31)CNC4=O [Lestaurtinib] + Cc1nc(NC(=O)N2CCC[C@H]2C(N)=O)sc1-c1ccnc(C(C)(C)C(F)(F)F)c1 [Alpelisib] (partner 2 µM)
Summary of the method: (§1)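 Medians of duplicate plates are given as relative viability. That measure is the nuclei count in treated wells divided by the count in vehicle wells. Counts were taken on 4× images of lung cancer cell lines in 1536-well plates, 5 days after pin-tool dosing the day after seeding with one drug alone or a fixed anchor-drug dose plus five library-drug doses (not always all listed) in √10 steps.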

Lestaurtinib + OSI-027 = compound: C[C@]12O[C@H](C[C@]1(O)CO)n1c3ccccc3c3c4c(c5c6ccccc6n2c5c31)CNC4=O [Lestaurtinib] + COc1cccc2cc(-c3nc([C@H]4CC[C@H](C(=O)O)CC4)n4ncnc(N)c34)[nH]c12 [OSI-027] (partner 0.5 µM)
Summary of the method: as §1

[1] = compound: C[C@]12O[C@H](C[C@]1(O)CO)n1c3ccccc3c3c4c(c5c6ccccc6n2c5c31)CNC4=O [Lestaurtinib] + C[C@@H](Oc1cc(-c2cnn(C3CCNCC3)c2)cnc1N)c1c(Cl)ccc(F)c1Cl [Crizotinib] (partner 1 µM)
Summary of the method: as §1

Lestaurtinib + Foretinib = compound: C[C@]12O[C@H](C[C@]1(O)CO)n1c3ccccc3c3c4c(c5c6ccccc6n2c5c31)CNC4=O [Lestaurtinib] + COc1cc2c(Oc3ccc(NC(=O)C4(C(=O)Nc5ccc(F)cc5)CC4)cc3F)ccnc2cc1OCCCN1CCOCC1 [Foretinib] (partner 0.25 µM)
Summary of the method: as §1

Cell Line	relative viability (Lestaurtinib + Alpelisib; first compound 0.005 µM)	relative viability (Lestaurtinib + Alpelisib; first compound 0.01581 µM)	relative viability (Lestaurtinib + Alpelisib; first compound 0.05 µM)	relative viability (Lestaurtinib + Alpelisib; first compound 0.1581 µM)	relative viability (Lestaurtinib + Alpelisib; first compound 0.5 µM)	relative viability (Lestaurtinib + OSI-027; first compound 0.005 µM)	relative viability (Lestaurtinib + OSI-027; first compound 0.01581 µM)	relative viability (Lestaurtinib + OSI-027; first compound 0.05 µM)	relative viability (Lestaurtinib + OSI-027; first compound 0.1581 µM)	relative viability (Lestaurtinib + OSI-027; first compound 0.5 µM)	relative viability ([1]; first compound 0.005 µM)	relative viability ([1]; first compound 0.01581 µM)	relative viability ([1]; first compound 0.05 µM)	relative viability ([1]; first compound 0.1581 µM)	relative viability ([1]; first compound 0.5 µM)	relative viability (Lestaurtinib + Foretinib; first compound 0.005 µM)	relative viability (Lestaurtinib + Foretinib; first compound 0.01581 µM)	relative viability (Lestaurtinib + Foretinib; first compound 0.05 µM)	relative viability (Lestaurtinib + Foretinib; first compound 0.1581 µM)	relative viability (Lestaurtinib + Foretinib; first compound 0.5 µM)
LXF-289	1.05	1.09	0.695	0.91	0.178	0.805	0.677	0.491	0.536	0.391	0.791	0.815	0.568	0.798	0.183	1.02	1.04	0.827	0.905	0.198
NCI-H23	0.666	0.552	0.571	0.565	0.236	0.592	0.719	0.596	0.418	0.345	0.466	0.495	0.401	0.546	0.233	1.02	1.22	0.837	0.635	0.321
NCI-H322M	0.853	0.789	0.508	0.325	0.405	0.561	0.525	0.427	0.498	0.372	0.931	0.919	0.495	0.482	0.41	0.935	1.02	0.523	0.609	0.45
NCI-H358	0.656	0.601	0.343	0.266	0.202	0.658	0.629	0.285	0.232	0.0986	0.61	0.297	0.402	0.31	0.0912	0.621	0.436	0.358	0.201	0.108
NCI-H441	0.584	0.687	0.416	0.421	0.289	0.597	0.589	0.279	0.342	0.303	0.912	0.654	0.395	0.505	0.308	1.07	1.02	0.795	0.933	0.277
NCI-H460	0.477	0.406	0.222	0.198	0.0751	0.498	0.859	0.359	0.229	0.204	1.16	0.905	0.448	0.676	0.516	0.96	1.11	0.951	1.28	0.9
NCI-H520	1.05	0.993	0.764	0.481	0.274	0.299	0.286	0.272	0.206	0.196	0.653	0.687	0.332	0.42	0.344	0.713	0.992	0.698	0.342	0.228
NCI-H596	0.409	0.484	0.464	0.624	0.432	0.743	0.818	0.647	0.717	0.65	0.851	1.05	0.805	1.02	0.923	0.724	0.946	0.82	1.1	0.671
